Measured values reported in PMC6857051, “Proliferative regulation of alveolar epithelial type 2 progenitor cells by human Scnn1d gene” (Theranostics, 2019).

Experiments:
human αβγ-ENaC = target: T1, human αβγ-ENaC (Homo sapiens, UniProt P37088+P51168+P51170); assay: Two-electrode voltage clamp of αβγ-ENaC expressed in Xenopus oocytes; format: cell-based; conditions: oocytes pre-treated, currents at -100 mV, n=5, Figure 3D
T1 construct: expressed in transfected cells; host or cells: Xenopus laevis oocytes injected with cRNA (pGEM HE vector)
T1 sequence (P37088 1-669): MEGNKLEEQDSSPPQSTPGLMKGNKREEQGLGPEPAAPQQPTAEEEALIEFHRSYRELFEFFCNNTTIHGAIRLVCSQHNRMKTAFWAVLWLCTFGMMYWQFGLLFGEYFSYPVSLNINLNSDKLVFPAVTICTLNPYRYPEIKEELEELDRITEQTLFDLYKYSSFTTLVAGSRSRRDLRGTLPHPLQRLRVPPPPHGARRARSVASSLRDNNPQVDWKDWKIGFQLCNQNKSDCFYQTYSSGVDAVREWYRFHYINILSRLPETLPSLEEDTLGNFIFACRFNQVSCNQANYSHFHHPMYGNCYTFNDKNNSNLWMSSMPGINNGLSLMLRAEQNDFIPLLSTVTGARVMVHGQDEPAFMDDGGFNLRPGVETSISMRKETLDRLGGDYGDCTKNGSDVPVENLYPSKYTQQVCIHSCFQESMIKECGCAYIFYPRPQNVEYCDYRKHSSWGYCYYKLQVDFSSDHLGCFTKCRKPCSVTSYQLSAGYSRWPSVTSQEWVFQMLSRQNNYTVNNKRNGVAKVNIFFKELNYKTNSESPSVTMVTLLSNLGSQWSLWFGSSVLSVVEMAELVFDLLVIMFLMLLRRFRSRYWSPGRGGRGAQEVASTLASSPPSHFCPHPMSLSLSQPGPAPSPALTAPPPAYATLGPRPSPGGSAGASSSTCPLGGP
T1 sequence (P51168 1-640): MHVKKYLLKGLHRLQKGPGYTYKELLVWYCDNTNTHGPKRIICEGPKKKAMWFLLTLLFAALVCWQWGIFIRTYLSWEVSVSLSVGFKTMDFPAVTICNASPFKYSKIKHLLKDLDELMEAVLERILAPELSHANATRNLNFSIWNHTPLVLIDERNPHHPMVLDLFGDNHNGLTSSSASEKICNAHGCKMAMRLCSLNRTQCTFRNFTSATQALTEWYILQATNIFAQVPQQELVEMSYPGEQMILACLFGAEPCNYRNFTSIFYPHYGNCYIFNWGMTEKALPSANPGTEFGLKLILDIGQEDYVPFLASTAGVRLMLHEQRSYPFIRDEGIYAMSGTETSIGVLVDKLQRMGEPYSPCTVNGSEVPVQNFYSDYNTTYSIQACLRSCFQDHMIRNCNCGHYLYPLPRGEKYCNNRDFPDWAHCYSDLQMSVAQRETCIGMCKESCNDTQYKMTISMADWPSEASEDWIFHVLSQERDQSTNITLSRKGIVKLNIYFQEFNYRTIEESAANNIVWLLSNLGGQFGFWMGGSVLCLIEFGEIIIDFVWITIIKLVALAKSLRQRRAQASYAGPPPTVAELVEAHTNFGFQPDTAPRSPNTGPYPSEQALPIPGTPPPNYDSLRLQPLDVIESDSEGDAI
T1 sequence (P51170 1-649): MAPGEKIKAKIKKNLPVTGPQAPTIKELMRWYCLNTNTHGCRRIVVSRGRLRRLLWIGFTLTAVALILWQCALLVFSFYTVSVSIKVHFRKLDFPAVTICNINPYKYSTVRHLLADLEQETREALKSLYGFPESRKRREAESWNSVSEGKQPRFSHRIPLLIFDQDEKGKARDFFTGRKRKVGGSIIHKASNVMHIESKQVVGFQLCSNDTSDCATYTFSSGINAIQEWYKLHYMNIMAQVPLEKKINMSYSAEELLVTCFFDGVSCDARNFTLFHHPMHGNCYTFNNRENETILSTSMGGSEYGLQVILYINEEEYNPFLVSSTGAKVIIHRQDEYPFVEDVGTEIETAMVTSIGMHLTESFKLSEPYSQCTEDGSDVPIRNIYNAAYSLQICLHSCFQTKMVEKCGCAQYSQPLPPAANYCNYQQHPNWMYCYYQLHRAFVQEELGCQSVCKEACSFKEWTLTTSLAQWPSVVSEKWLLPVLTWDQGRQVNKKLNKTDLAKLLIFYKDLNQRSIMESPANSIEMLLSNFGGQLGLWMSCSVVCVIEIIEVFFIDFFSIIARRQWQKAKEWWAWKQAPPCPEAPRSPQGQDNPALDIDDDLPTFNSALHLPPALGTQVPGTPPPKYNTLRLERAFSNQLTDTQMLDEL
Protocol: (§1) Cloning, in vitro transcription, and heterologous expression of δ802 ENaC and two-electrode voltage clamping assay. δ802 and other ENaC subunits were generated in human ENaC cDNAs cloned into a pGEM HE vector [4], [76]. cRNAs of human α, β, and γ ENaC were prepared as described previously. The stoichiometry of native ENaC complexes is unclear to date. Based on the studies in the last decade, several models have been proposed for αβγ ENaC channels: 1α1β1γ, 2α1β1γ, 3α3β3γ. Based on the EM structure of human αβγ ENaC [35], the currently acceptable model of human αβγ ENaC complexes is heterotrimeric (1α1β1γ). Thus we microinjected δ802:β:γ in a 1:1:1 subunit ratio. Oocytes were surgically removed from appropriately anesthetized adult female Xenopus laevis (Xenopus Express). Briefly, the ovarian tissue was removed from the frog under anesthesia by tricaine-S (Western Chemicals) through a small incision in the lower abdomen. Ovarian lobes were removed and digested in OR-2 calcium-free medium (in mM: 82.5 NaCl, 2.5 KCl, 1.0 MgCl2, 1.0 Na2HPO4, and 10.0 HEPES, pH 7.5) with the addition of 2 mg/ml collagenase (Roche, Indianapolis). Defolliculated oocytes were injected with ENaC cRNAs into the cytosol (25 ng per oocyte in 50 nl of RNase-free water) and incubated in regular OR-2 medium at 18°C. The two-electrode voltage-clamp technique was used to record whole-cell currents 48 h post injection. Oocytes were impaled with two electrodes filled with 3M KCl, having resistance of 0.5 - 2 MΩ. A TEV-200A voltage-clamp amplifier (Dagan) was used to clamp oocytes with concomitant recording of currents. Two reference electrodes were connected to the bath. The continuously perfused bathing solution was ND-96 medium (in mM: 96.0 NaCl, 1.0 MgCl2, 1.8 CaCl2, 2.5 KCl, and 5.0 HEPES, pH 7.5). Whole-cell currents were recorded as previously reported. Experiments were controlled by pCLAMP 10.7 software (Molecular Devices), and currents at -40 mV, -100 mV, and +80 mV were continuously monitored with data recorded at intervals of 10 sec. Data were sampled at the rate of 200 Hz and filtered at 50 Hz.

δ802αβγ-ENaC = target: T2, δ802αβγ-ENaC (Homo sapiens, UniProt P51168+P51170); assay: Two-electrode voltage clamp of δ802αβγ-ENaC expressed in Xenopus oocytes; format: cell-based; conditions: oocytes pre-treated, currents at -100 mV, n=5, Figure 3D
T2 construct: We characterized full-length human δ802-ENaC expressed in both Xenopus oocytes and humanized transgenic mice; expressed in transfected cells; host or cells: Xenopus laevis oocytes injected with cRNA (pGEM HE vector)
T2 sequence (P51168 1-640): T1 sequence (P51168 1-640)
T2 sequence (P51170 1-649): T1 sequence (P51170 1-649)
Protocol: as §1

[1] = tested on: δ802- and γ-ENaC subunits; assay: Immunoblot of cleavage of tagged δ802- and γ-ENaC subunits in oocytes by serine proteases; format: biochemical, human; conditions: 10 μg/ml, 45 minutes at room temperature
Protocol: Figure 3 Activation of δ802-containing ENaC channels by serine proteases. (A) Activation of δ802βγ ENaC expressed in Xenopus oocytes by two-chain urokinase plasminogen activator (tc-uPA). ENaC activity was measured at the membrane potential of -100 mV at defined time points post incubation with 10 μg/ml tc-uPA. n = 9-15. mean ± s.e.m. * P<0.05 vs data at the zero minute (min). (B) Time course of stimulatory effects of plasmin on δ802βγ-ENaC activity. n=12. * P<0.05. (C) Identification of subunit responsible for plasmin activation. Fold of amiloride-sensitive current (ASI) of ENaC-associated current in the presence of plasmin over that in the absence of plasmin was computed for oocytes expressing δ802+β+γ (δβγ), δ802 alone (δ), δ802+β(δβ), and δ802+γ (δγ). n = 12-15. * P<0.05. (D) Inhibitory effects of α-13 peptide on δ802αβγ- (δαβγ) and αβγ-ENaC activity post treatment of plasmin and aprotinin. Currents (I) at -100 mV were compared in the absence of amiloride (basal, open bar), presence of α-13 peptide (α13, closed bar), and amiloride (amil, grey bar). n=5. * P<0.05 vs basal currents, & P < 0.05 vs those in the presence of α-13 peptide. (E) Fractions of α-13 sensitive currents in cells pre-treated with plasmin and aprotinin. n=8. Control, without pre-treatment. (F) Cleavage of V5-tagged δ802- and γ-ENaC subunits by serine proteases. NI, non-injected oocytes as negative controls for ENaC expression. Oocytes incubated with chymotrypsin (CT, 10 μg/ml), plasmin (PI, 10 μg/ml) for 45 minutes at room temperature. Cells treated with the same volume of saline (‑) were controls for serine proteases.

Substance | effect of pre-treatment on αβγ-ENaC activity (human αβγ-ENaC) | effect of pre-treatment on δ802αβγ-ENaC activity (δ802αβγ-ENaC) | cleavage of δ802 subunit [1]
aprotinin | did not alter the current amplitude significantly | did not alter the current amplitude significantly | –
chymotrypsin | – | – | Neither chymotrypsin nor plasmin nor endogenous furin cleaved the δ802 subunit
